In patent US20250161419A1, “SERPIN PEPTIDES AND METHODS OF USING THE SAME” (SERPIN PHARMA, LLC, priority 2022, published 2025):

Tests used:
phospho-STAT6 = test: IL-13 stimulated STAT6 phosphorylation in esophageal EPC2 cells (western blot); format: cell-based, human; conditions: 30 minutes post IL-13 induction
Description: Esophageal EPC2 cells were treated with vehicle (ddw), A1AT or SP163M. Cells were collected at time-points indicated and western blot analysis of phospho-specific STAT6 was analyzed. […] Using CRISPER/CAS9 technology, an LRP1 knockout esophageal EPC2 cell line was created.

NFκB [1] = test: NFκB reporter assay stimulated with LPS (THP1-XBlue-MD2-GD14 reporter cells, SEAP read-out); format: cell-based; conditions: peptide 50 μg/ml before LPS 5 ng/ml, overnight
Description: The reporter cells (THP1-XBlue-MD2-GD14 cells) were treated with each peptide (50 μg/ml) before being insulted with LIPS (5 ng/ml) and incubated overnight. The NFκB inducible Secreted Embryonic Alkaline Phosphatase (SEAP) was measured in the supernatant and read for absorbance.

phospho-ERK1/2 = test: Cell signaling analysis in PC12 cells, immunoblot of phospho-ERK1/2; format: cell-based, rat; conditions: SP163M 24 or 240 nM, NGF 0.36 nM, RAP 150 nM pretreatment 15 min
Description: Cell signaling analysis: Rat PC12 cells were purchased from ATCC (CRL-1721). PC12 cells were maintained in high glucose DMEM (Gibco, USA) containing 10% heat-inactivated FBS (Gibco, USA), 5% HyClone heat-inactivated horse serum (Cytiva, USA), penicillin (100 units/ml) and streptomycin ([…]) in 6-well plates that were pre-coated with 0.01 mg/ml type IV collagen (Sigma-Aldrich, St. Louis, MO, USA). Cells were transferred to serum-free medium (SFM) 4 h prior to adding effectors, and then treated with SP163M (2.4, 24 or 240 nM); EI-tPA (12 nM), NGF (0.36 nM), or vehicle (PBS) for 10 min. In some cases, cells were pre-incubated with the competitive antagonist of LRP1, GST-RAP (150 nM) for 15 min or electroporated using the Rat Neuron Nucleofector Amaxa Kit (Lonza Biosciences) and incubated with siRNA to silence LRP1 expression (siLRP1; M-094191-01-0010, Dharmacon) for 48 h. Control cells were transfected with non-targeting control (NTC) siRNA (NTC; D-001810-10-05, Dharmacon). Cells were rinsed with ice-cold PBS and proteins were extracted in RIPA buffer (20 mM sodium phosphate, 150 mM NaCl, pH 7.4, 1% Triton X-100, 0.5% sodium deoxycholate, 0.1% SDS) supplemented with protease and phosphatase inhibitors (Roche Diagnostics, USA). After 30 min on ice, lysates were centrifuged at 15000×g for 5 min, supernatant collected and stored at −20° C. Equal amounts of protein from cell lysates (20 μg), as determined by BCA Protein Assay (ThermoFisher Scientific, Waltham, MA, USA), were subjected to 10% SDS-PAGE and electro-transferred to nitrocellulose membranes. The membranes were blocked with 5% nonfat dried milk and then incubated with primary anti-phospho-AKT (Cell Signaling Technology, Danvers, MA, USA; cat #9271S; 1:1000), anti-phospho-ERK1/2 (Cell Signaling Technology, Danvers, MA, USA; cat #9101S; 1:1000), anti-LRP1 (Cell Signaling Technology, Danvers, MA, USA; cat #64099S; 1:1000) or anti total-ERK1/2 (Cell Signaling Technology, Danvers, MA, USA; cat #91012S; 1:1000). Immunoblots were developed using Radiance, Radiance Q, and Radiance Plus chemiluminescent substrates and imaged using a BioRad ChemiDoc Imaging System (Bio-Rad, Hercules, CA, USA).

[2] = Peptide stability as stated in Example 1 (no method described); format: physicochemical; conditions: stated as explanation of activity; no test described
NFκB [3] = test: NFκB reporter assay stimulated with LPS (THP1-XBlue-MD2-GD14 reporter cells, SEAP read-out); format: cell-based; conditions: without LPS

## A1AT: alpha-1 antitrypsin, the prototypical SERPIN [Peptide A1AT]
phospho-STAT6
  STAT6 phosphorylation: STAT6 was phosphorylated in vehicle and A1AT treated cells

## FPKMVPQFNTELKIFPEVNIK (FPKMVPQFNTELKIFPEVNIK) [SP34, reference compound]
NFκB [1]
  NFκB activity (NFκB inducible SEAP in supernatant): neither the scrambled core control peptide nor the AAT 0-36 fragment decreased the NFκB activity

## LRFNRPFLVVI [SP24]
NFκB [1]
  NFκB activity (NFκB inducible SEAP in supernatant): lack of function

## NGF: NGF-β purchased from Sigma, cell signaling control [reference compound]
phospho-ERK1/2
  activation of phospho-ERK1/2 after 10 min, with or without RAP: activated ERK1/2

## R R R L R F N R P F L V V I R R R (RRRLRFNRPFLVVIRRR) [SP26]
NFκB [1]
  NFκB activity (NFκB inducible SEAP in supernatant): heightened activity

## RRRVKFNKPFVFLMIEQNTKRRR (RRRVKFNKPFVFLMIEQNTKRRR; SP16 peptide core sequence including the LRP1 binding site) [SP21]
NFκB [1]
  NFκB activity (NFκB inducible SEAP in supernatant): NFkB inhibition increased as well relative to SP16
[2]
  peptide stability: stability increased

## R R R V K F N K P F V F L M R R R (RRRVKFNKPFVFLMRRR; SP16 peptide core sequence including the LRP1 binding site) [SP22]
NFκB [1]
  NFκB activity (NFκB inducible SEAP in supernatant): NFκB activity was significantly reduced

## R R R V R F N R P F L M I I R R R (RRRVRFNRPFLMIIRRR) [SP29]
NFκB [1]
  NFκB activity (NFκB inducible SEAP in supernatant): heightened activity

## R R R V R F N R P F L R R R (RRRVRFNRPFLRRR) [SP32]
NFκB [1]
  NFκB activity (NFκB inducible SEAP in supernatant): could not be restored with the poly arginine flanks

## SIPPEVKFNKPFVFLMIEQNTKSPLFMGKVVNP (SIPPEVKFNKPFVFLMIEQNTKSPLFMGKVVNP; SP16 peptide core sequence including the LRP1 binding site; listed as Homo sapiens) [SP8, reference compound]
NFκB [1]
  NFκB activity (NFκB inducible SEAP in supernatant): neither the scrambled core control peptide nor the AAT 0-36 fragment decreased the NFκB activity
NFκB [3]
  NFkB induction by the peptide itself: showed NFkB inducible properties without the need for LPS

## V R F N R P F L (VRFNRPFL) [SP31]
NFκB [1]
  NFκB activity (NFκB inducible SEAP in supernatant): anti-inflammatory activity of the peptide was lost

## VKFNKPFVFLM (SP16 peptide core sequence including the LRP1 binding site; listed as Homo sapiens) [SP20]
NFκB [1]
  NFκB activity (NFκB inducible SEAP in supernatant): did not have an inhibitory effect
[2]
  peptide stability: unstable

## VRFNRPFLMII [SP28]
NFκB [1]
  NFκB activity (NFκB inducible SEAP in supernatant): lack of function
